Laboratory results reported in patent EP4778526A1, “ANTI-AGING AGENT, ORAL COMPOSITION FOR ANTI-AGING, AND USE OF COMPOUND” (Institute of Rheological Function of Food Co., Ltd., priority 2023, dated 2025).

Key:
NAMPT [1] = assay: Test Example 1: real-time PCR of NAMPT mRNA expression in HHORSCs cultured with KIT13; type: cell-based; settings: Human hair outer root sheath cells (HHORSCs), 5 µg/ml, 7 hours; mRNA normalized by 18S rRNA; vs culture medium not containing KIT13; FIG. 1
Description: (§1) Human hair outer root sheath cells (HHORSCs; manufactured by ScienCell Research Laboratories, #2420) were cultured for 7 hours in a culture medium containing 5 µg/ml of KIT13. As a culture medium for HHORSCs, a mesenchymal stem cell medium (manufactured by ScienCell Research Laboratories, #7501) was used. As a negative control, HHORSCs were cultured in a culture medium not containing KIT13.
(§2) RNA was extracted from cells using TRIzol (manufactured by Thermo Fisher Scientific). Subsequently, a first strand cDNA was prepared using PrimeScript RT Master Mix (manufactured by Takara), and mRNA expression of target genes and endogenous control genes was detected by real-time PCR using TB Green Premix Ex Taq II (manufactured by Takara) and T100 (trademark) Thermal Cycler (manufactured by BIO-RAD). The target genes were NAMPT, SIRT1, and NRF1, UQCRC1, and ATP5A1 whose expression is induced by activation of SIRT1 (Yuanyuan Huang, and ten others, "Resveratrol-induced Sirt1 phosphorylation by LKB1 mediates mitochondrial metabolism", J. Biol. Chem., 2021, 297(2), 100929). As the endogenous control gene, 18S ribosomal RNA (18S rRNA) was used, and measurement values of each gene were normalized by measurement values of 18S rRNA.

SIRT1 [2] = assay: Test Example 1: real-time PCR of SIRT1 mRNA expression in HHORSCs cultured with KIT13; type: cell-based; settings: Human hair outer root sheath cells (HHORSCs), 5 µg/ml, 7 hours; mRNA normalized by 18S rRNA; vs culture medium not containing KIT13; FIG. 2
Description: as §1, §2

NRF1 = assay: Test Example 1: real-time PCR of NRF1 mRNA expression in HHORSCs cultured with KIT13; type: cell-based; settings: Human hair outer root sheath cells (HHORSCs), 5 µg/ml, 7 hours; mRNA normalized by 18S rRNA; vs culture medium not containing KIT13; FIG. 3
Description: as §1, §2

UQCRC1 = assay: Test Example 1: real-time PCR of UQCRC1 mRNA expression in HHORSCs cultured with KIT13; type: cell-based; settings: Human hair outer root sheath cells (HHORSCs), 5 µg/ml, 7 hours; mRNA normalized by 18S rRNA; vs culture medium not containing KIT13; FIG. 4
Description: as §1, §2

ATP5A1 = assay: Test Example 1: real-time PCR of ATP5A1 mRNA expression in HHORSCs cultured with KIT13; type: cell-based; settings: Human hair outer root sheath cells (HHORSCs), 5 µg/ml, 7 hours; mRNA normalized by 18S rRNA; vs culture medium not containing KIT13; FIG. 5
Description: as §1, §2

NAMPT [3] = assay: Test Example 2: real-time PCR of NAMPT mRNA expression in femoral muscle of mice given KIT13; type: in vivo; settings: four-week-old male c57BL6J mice, by drinking water, 20 µg/kg for four weeks; femoral muscles; mRNA normalized by β-actin; FIG. 6
Description: (§3) KIT13 was administered to four-week-old male c57BL6J mice (five mice per group, n = 5) by drinking water at a dose of 20 µg/kg for four weeks. Femoral muscles were collected from each mouse and analyzed as follows.
(§4) Femoral muscles were crushed by homogenization using 18G to 25G injection needles in Buffer A (0.25 M sucrose, 10 mM Hepes-KOH (pH 7.5), 1 mM EDTA, protease inhibitor cocktail), and RNA was extracted from the cells based on equal amounts of protein using TRIzol (manufactured by Thermo Fisher Scientific). Subsequently, a first strand cDNA was prepared using PrimeScript RT Master Mix (manufactured by Takara), and mRNA expression of target genes and endogenous control genes was detected by real-time PCR using TB Green Premix Ex Taq II (manufactured by Takara) and T100 (trademark) Thermal Cycler (manufactured by BIO-RAD). The target genes were NAMPT and SIRT1, and the endogenous control gene was β-actin. Measurement values of each gene were normalized by measurement values of β-actin.

SIRT1 [4] = assay: Test Example 2: real-time PCR of SIRT1 mRNA expression in femoral muscle of mice given KIT13; type: in vivo; settings: four-week-old male c57BL6J mice, by drinking water, 20 µg/kg for four weeks; femoral muscles; mRNA normalized by β-actin; FIG. 7
Description: as §3, §4

For `CCCCC/C=C\C/C=C\C/C=C\C/C=C\CCCC(=O)O[C@H](COCCCCCCCCCCCCCCCCCC)COP(=O)(O)OCCN` [KIT13], the “relative expression level of NAMPT” value (NAMPT [1]) was “significantly increased”, the “relative expression level of SIRT1” value (SIRT1 [2]) was “significantly increased” and the “relative expression level of NRF1” value (NRF1) was “increased”. For the same molecule, the “relative expression level of UQCRC1” value (UQCRC1) was “increased”, the “relative expression level of ATP5A1” value (ATP5A1) was “increased” and the “relative expression level of NAMPT in muscle” value (NAMPT [3]) was “significantly increased”. For the same molecule, the “relative expression level of SIRT1 in muscle” value (SIRT1 [4]) was “significantly increased”.
